Measured values reported in patent US20110160059A1, “Herbicidal compositions comprising flufenacet” (Bayer CropScience AG, priority 2009, published 2011).

Key:
Type in all cases: in vivo
[1] = tested on: APESV=Apera spica-venti=weed; assay: Greenhouse trial, post-emergence action against weeds (test method 1); conditions: PO application, about 3 weeks after application
Method: (§1) In the standard design of the test, seeds of various broad-leaved weed and weed grass biotypes (origins) were sown in a 8-13 cm diameter pot filled with natural soil of a standard field soil (loamy silt; non-sterile) and covered with a covering soil layer of about 1 cm. The pots were then cultivated in a greenhouse (12-16 h of light, temperature day 20-22° C., night 15-18° C.) until the time of application. The pots were treated on a laboratory track sprayer with spray liquors comprising the compositions according to the invention, mixtures of the prior art or components used individually. Application of the active compounds or active compound combinations formulated as WG, WP, EC or otherwise was carried out at the appropriate growth stages of the plants. The application rate for the spray application was 100-600 l of water/ha. After the treatment, the plants were returned to the greenhouses.
(§2) About 3 weeks after the application, the soil action or/and foliar action was assessed visually according to a scale of 0-100% in comparison to an untreated comparative group: 0%=no noticeable effect compared to the untreated comparative group; 100%=full effect compared to the untreated comparative group.
(§3) (notes: the term “seeds” also includes vegetative propagation forms such as, for example, rhizome pieces; abbreviations used: h light=hours of illumination, g of AS/ha=gram of active substance per hectare, l/ha=liter per hectare, S=sensitive, R=resistant) • 1. Post-emergence action against weeds: seeds of various broad-leaved weed and weed grass biotypes (origins) were sown in a 8-13 cm diameter pot filled with natural soil of a standard field soil (loamy silt; non-sterile) and covered with a covering soil layer of about 1 cm. The pots were then cultivated in a greenhouse (12-16 h of light, temperature day 20-22° C., night 15-18° C.) until the time of application. The pots were treated at various BBCH stages between 11-25 of the seeds/plants, i.e. generally between two to three weeks after the start of the cultivation, on a laboratory track sprayer with spray liquors comprising the compositions according to the invention, mixtures or components used individually, as WG, WP, EC or other formulations. The application rate for the spray application was 100-600 l of water/ha. After the treatment, the plants were returned to the greenhouses and, when required, treated with fertilizer and watered. • 2. Selective post-emergence action: seeds of various crop species (origins) were sown in a 8-13 cm diameter pot filled with natural soil of a standard field soil (loamy silt; non-sterile) and covered with a covering soil layer of about 1 cm. The pots were then cultivated in a greenhouse (12-16 h of light, temperature day 20-22° C., night 15-18° C.) until the time of application. The pots were treated at various BBCH stages between 11-32 of the seeds/plants, i.e. generally between two to four weeks after the start of the cultivation, on a laboratory track sprayer with spray liquors comprising the compositions according to the invention, mixtures or components used individually, as WG, WP, EC or other formulations. The application rate for the spray application was 100-600 l of water/ha. After the treatment, the plants were returned to the greenhouses and, when required, treated with fertilizer and watered. The pots were cultivated in a greenhouse (12-16 h light, temperature day 20-22° C., night 15-18° C.).
(§4) Insofar as herbicidal effects of the compositions according to the invention compared to mixtures of the prior art or compared to components applied individually against economically important mono- and dicotyledonous harmful plants were the center of attention, the synergistic herbicidal activities were calculated using Colby's formula (cf. S. R. Colby; Weeds 15 (1967), 20-22): […]

[2] = tested on: VIOAR=Viola arvensis=weed; assay: as above; conditions: PO application, about 3 weeks after application
Method: as §1, §2, §3, §4

[3] = tested on: HORVS=Hordeum vulgare, summer barley=crop plant; assay: Greenhouse trial, selective post-emergence action on crop (test method 2)
Method: as §1, §2
(notes: the term “seeds” also includes vegetative propagation forms such as, for example, rhizome pieces; abbreviations used: h light=hours of illumination, g of AS/ha=gram of active substance per hectare, l/ha=liter per hectare, S=sensitive, R=resistant) • 1. […]
as §4

`CC(Oc1ccc(Oc2ccc(Cl)cc2Cl)cc1)C(=O)O` (racemic) [(B) diclofop, (±)-2-[4-(2,4-dichlorophenoxy)phenoxy]propanoic acid] was tested, and the “activity on APESV, visual scale 0-100% vs untreated” value ([1]; 378 g of AS/ha) was 0%, the “activity on VIOAR, visual scale 0-100% vs untreated” value ([2]; 378 g of AS/ha) was 0% and the “activity (crop damage) on HORVS, visual scale 0-100% vs untreated” value ([3]; PO application, 378 g of AS/ha, about 3 weeks after application, greenhouse) was 20%.
With `CC(C)N(C(=O)COc1nnc(C(F)(F)F)s1)c1ccc(F)cc1` [(A) flufenacet, N-(4-fluorophenyl)-N-(1-methylethyl)-2-[[5-(trifluoromethyl)-1,3,4-thiadiazol-2-yl]oxy]acetamide] the “activity on APESV, visual scale 0-100% vs untreated” value ([1]; 120 g of AS/ha) was 60%, the “activity on VIOAR, visual scale 0-100% vs untreated” value ([2]; 120 g of AS/ha) was 40% and the “activity (crop damage) on HORVS, visual scale 0-100% vs untreated” value ([3]; Hordeum vulgare (summer barley), in vivo, po) was 40%.
With `CSc1nnc(C(C)(C)C)c(=O)n1N` [(C) metribuzin, 4-amino-6-(1,1-dimethylethyl)-3-(methylthio)-1,2,4-triazin-5(4H)-one] the “activity on APESV, visual scale 0-100% vs untreated” value ([1]; 140 g of AS/ha) was 79%, the “activity on VIOAR, visual scale 0-100% vs untreated” value ([2]; 140 g of AS/ha) was 90% and the “activity (crop damage) on HORVS, visual scale 0-100% vs untreated” value ([3]; PO application, 140 g of AS/ha, about 3 weeks after application, greenhouse) was 70%.
